Laboratory results: US10196411B2, “Tizoxanide phosphate and alkane sulfonate and pharmaceutical applications thereof” (priority 2014, dated 2019)
Converted amounts (≈) assume the structure as drawn. Where a name gives a salt, the structure may show the parent alone. Read-outs that look alike come from different tables or passages of the source.

Columns and labels:
[1] = Pharmacokinetic evaluation of oral administration in mice (tizoxanide in blood by LC/MS/MS); type: in vivo, ICR mice; details: in words; for conversion to the active form tizoxanide in vivo: after oral administration in mice; for Area Under concentration-time Curve (AUC) compared to nitazoxanide: oral administration in mice
Protocol: Sample preparation: 32.57 μmol of a test compound was dissolved in 100 μL dimethyl sulfoxide (DMSO), with the addition of 10 mL 0.5% Carboxyl Methyl Cellulose Sodium (CMC-Na) solution, to prepare a sample at 3.257 μmol/mL.
The test compounds refer to the compounds prepared in Examples of the invention and the positive control compound nitazoxanide. The experiment was carried out in two batches, wherein the first hatch of test compounds were Compound 1, 2, 6, 7, 8, 9 and the positive control compound nitazoxanide; and the second batch of test compounds were Compound 3, 4, 5, 12, 14, 17, 18 and positive control compound nitazoxanide.
Experimental method: ICR mice (SPS grade, male, […]), purchased from Beijing Vital River Laboratory Animal Technology Co., Ltd., were grouped randomly depending on body weight, 3 mice for each group. Nitazoxanide and a test compound were intragastrically administered separately to each mouse at a dose of 10 mL/kg (i.e., 32.57 μmol/kg of corresponding drug to each mouse), wherein nitazoxanide was used as positive control, and 0.1 ml blood was taken from veins of Fundus Oculi at 0.08, 0.25, 0.5, 1, 2, 4, 6, 8 and 12 h after administration, placed in a Heparin Sodium-containing centrifuge tube, and centrifuged for 20 min (at a relative centrifugal force (RCF) of 3000 g). The plasma was taken and stored in a −20° C. refrigerator for further detection.
During the detection, 50 μL plasma was taken, with the addition of an internal standard solution (5000 ng/mL glipizide aqueous solution, 10 μL), and the addition of acetonitrile (200 μL), and then mixed well. The mixture was vortexed for 3 min, and centrifuged for 10 min (at a relative centrifugal force (RCF) of 8500 g). The supernatant (50 μL) was well mixed with water (50 μL), and 10 μL was drawn for LC/MS/MS analysis, so as to detect the blood concentration of tizoxanide. The results are shown in Table 1, Table 2, Table 3, Table 4, FIG. 1, and FIG. 2.

[2] = Pharmacokinetic evaluation of oral administration and intravenous injection in rats; type: in vivo, SD rats; details: for MRT last: read-out: MRT(0-t)
Protocol: 9 SD rats (SPF grade, male, 200±10 g), provided by Laboratory Animal Center of the Academy of Military Medical Sciences, were grouped randomly, 3 […] for each group.
[…]; The plasma was separated and stored in a −20° C. refrigerator for further detection.
(2) Oral administration group of Compound 3, a dose of 15 mg/kg (equivalent to a dose of 41 μmol/kg tizoxanide); […]; The plasma was separated and stored in a −20° C. refrigerator for further detection.
(3) Oral administration group of nitazoxanide: a dose of 12.5 mg/kg (equivalent to a dose of 41 μmol/kg tizoxanide); administration volume: 2 mL/200 g rat (preparation of a test solution: 10.96 mg nitazoxanide was weighed accurately and dissolved by adding 600 μL DMSO, and […] sterile water was added to prepare a clear solution at 1.25 mg/mL); after oral administration of nitazoxanide at 12.5 mg/kg in rats, blood was taken before administration and at 0.08, 0.25, 0.5, 1, 2, 4, 6, 8, 12 and 24 h after administration. The plasma was separated and stored in a −20° C. refrigerator for further detection.
Treatment of plasma sample: 100 μL plasma was taken, 300 μL acetonitrile solution containing internal standard (500 nmol/L a solution of tolbutamide in acetonitrile) was added, and then mixed well. The mixture was vortexed for 1 min, and centrifuged at 4° C. for 10 min (at a relative centrifugal force (RCF) of 14000 g). The supernatant was taken, and 20 μL was drawn for LC/MS/MS analysis, so as to detect the blood concentration of tizoxanide and the prototype drug.

[3] = in words
[4] = tested on: Mycobacterium tuberculosis; details: cited from earlier work
PR8 influenza virus = PR8 influenza virus in MDCK cells; cited from earlier work
[5] = in vivo, cited from earlier work
Helicobacter pylori = details: 103 strains of Helicobacter pylori; cited from earlier work
[6] = Compound 3 in plasma, rats, intravenous injection of Compound 3 (5 mg/kg)
[7] = Compound 3 in plasma, rats, oral administration of Compound 3 (15 mg/kg)
[8] = male, SD, rat, in vivo, Compound 3 in plasma, rats, intravenous injection of Compound 3 (5 mg/kg)
[9] = male, SD, rat, in vivo, Compound 3 in plasma, rats, oral administration of Compound 3 (15 mg/kg)
[10] = male, SD, rat, in vivo, rats, intravenous injection of Compound 3 (5 mg/kg), read-out: plasma concentration of Compound 3
[11] = male, SD, rat, in vivo, rats, oral administration of Compound 3 (15 mg/kg), read-out: plasma concentration of Compound 3

Compound `CC(C)(C)OC(=O)NCCS(=O)(=O)Oc1ccccc1C(=O)Nc1ncc([N+](=O)[O-])s1` has a melting point of 164 to 166 °C.
For `O=C(Nc1ncc([N+](=O)[O-])s1)c1ccccc1OP(=O)(OCc1ccccc1)OCc1ccccc1` [Compound 1, dibenzyl 2-(5-nitrothiazol-2-yl-carbamoyl)phenyl phosphate], the “conversion to the active form tizoxanide in vivo” value (from here on “conversion … in vivo”) [1] was “relatively complete”, the “Area Under concentration-time Curve (AUC) compared to nitazoxanide” value [1] was “slightly higher” and the melting point was 122 to 123 °C.
For `O=C(Nc1ncc([N+](=O)[O-])s1)c1ccccc1OP(=O)(O)O` [Compound 2, 2-(5-nitrothiazol-2-yl-carbamoyl)phenyl dihydrogen phosphate], the “conversion … in vivo” value [1] was “relatively complete” and the melting point was 224 to 226 °C.
For `O=C(Nc1ncc([N+](=O)[O-])s1)c1ccccc1OP(=O)(O)O` [Compound 3, 2-(5-nitrothiazol-2-yl-carbamoyl)phenyl hydrogen phosphate monosodium salt], the CLz/F [2, 6] was 17.2 ± 2.83 mL/min/kg, the t1/2z [2, 6] was 28.8 ± 16.8 min and the CLz/F [2, 7] was 1879.8 ± 783.8 mL/min/kg. For the same compound, the F [2, 7] was 2.4%, the t1/2z [2, 7] was 100 ± 100 min and the AUC(0-inf) [2, 8] was 4920 ± 786 ng·h/mL. The AUC(0-t) [2, 8] was 4920 ± 786 ng·h/mL, the Cmax [2, 8] was 26700 ± 6590 ng/mL and the MRT last [2, 8] was 15.6 ± 9 min. For the same compound, the AUC(0-inf) [2, 9] was 154 ± 76.3 ng·h/mL, the AUC(0-t) [2, 9] was 119 ± 50 ng·h/mL and the Cmax [2, 9] was 100 ± 20 ng/mL. It also gave a Tmax [2, 9] of 15 min, an MRT last [2, 9] of 73.2 ± 49.8 min and a Vd/F ([2]; male, SD, rat, in vivo, Compound 3 in plasma, rats, oral administration of Compound 3 (15 mg/kg), read-out: Vz/F) of 198 ± 118 L/kg. The concentration at 0.03 h [2, 10] was 26700 ± 6590 ng/mL, the concentration at 0.08 h [2, 10] was 13300 ± 1390 ng/mL and the concentration at 0.25 h [2, 10] was 3970 ± 1880 ng/mL. The concentration at 0.5 h [2, 10] was 1730 ± 1250 ng/mL, the concentration at 1 h [2, 10] was 345 ± 316 ng/mL and the concentration at 2 h ([2]; male, SD, rat, in vivo, rats, intravenous injection of Compound 3 (5 mg/kg), 2 h, read-out: plasma concentration of Compound 3) was 113 ± 83.4 ng/mL. The concentration at 4 h ([2]; male, SD, rat, in vivo, rats, intravenous injection of Compound 3 (5 mg/kg), 4 h, read-out: plasma concentration of Compound 3) was 13.9 ± 1.9 ng/mL, the concentration at 0.03 h [2, 11] was 55.3 ± 2.1 ng/mL and the concentration at 0.08 h [2, 11] was 99.1 ± 22.1 ng/mL. It also gave a concentration at 0.25 h [2, 11] of 71.1 ± 7.3 ng/mL, a concentration at 0.5 h [2, 11] of 33 ± 3.2 ng/mL and a concentration at 1 h [2, 11] of 24.4 ± 1.6 ng/mL. For the same compound, the “conversion to active form tizoxanide” value ([2]; rats, oral administration or intravenous injection, in words) was “quickly converted”.
In the case of `O=C(Nc1ncc([N+](=O)[O-])s1)c1ccccc1OP(=O)(O)O` [Compound 5, 2-(5-nitrothiazol-2-yl-carbamoyl)phenyl phosphate calcium salt], the “solubility compared to nitazoxanide” value [3] is reported as “much better”.
For `CS(=O)(=O)Oc1ccccc1C(=O)Nc1ncc([N+](=O)[O-])s1` [Compound 6, 2-(5-nitrothiazol-2-yl-carbamoyl)phenyl methanesulfonate], the “conversion … in vivo” value [1] was “relatively complete”, the “Area Under concentration-time Curve (AUC) compared to nitazoxanide” value [1] was “much higher” and the melting point was 188 to 190 °C.
For `CCS(=O)(=O)Oc1ccccc1C(=O)Nc1ncc([N+](=O)[O-])s1` [Compound 7, 2-(5-nitrothiazol-2-yl-carbamoyl)phenyl ethanesulfonate], the “conversion … in vivo” value [1] was “relatively complete”, the “Area Under concentration-time Curve (AUC) compared to nitazoxanide” value [1] was “much higher” and the melting point was 178 to 180 °C.
For `CCCS(=O)(=O)Oc1ccccc1C(=O)Nc1ncc([N+](=O)[O-])s1` [Compound 8, 2-(5-nitrothiazol-2-yl-carbamoyl)phenyl 1-propanesulfonate], the “conversion … in vivo” value [1] was “relatively complete”, the “Area Under concentration-time Curve (AUC) compared to nitazoxanide” value [1] was “much higher” and the melting point was 144 to 146 °C.
With `CCCCS(=O)(=O)Oc1ccccc1C(=O)Nc1ncc([N+](=O)[O-])s1` [Compound 9, 2-(5-nitrothiazol-2-yl-carbamoyl)phenyl 1-butanesulfonate] the “conversion … in vivo” value [1] was “relatively complete”, the “Area Under concentration-time Curve (AUC) compared to nitazoxanide” value [1] was “much higher” and the melting point was 142 to 144 °C.
In the case of `NCCS(=O)(=O)Oc1ccccc1C(=O)Nc1ncc([N+](=O)[O-])s1` [Compound 12, 2-(5-nitrothiazol-2-yl-carbamoyl)phenyl taurate hydrochloride], the “conversion … in vivo” value [1] is reported as “relatively complete” and the “Area Under concentration-time Curve (AUC) compared to nitazoxanide” value [1] is reported as “much higher”.
With `COP(=O)(OC)Oc1ccccc1C(=O)Nc1ncc([N+](=O)[O-])s1` [Compound 17, dimethyl 2-(5-nitrothiazol-2-yl-carbamoyl)phenyl phosphate] the “conversion … in vivo” value [1] was “relatively complete” and the “Area Under concentration-time Curve (AUC) compared to nitazoxanide” value [1] was “obviously higher”.
With `CCOP(=O)(OCC)Oc1ccccc1C(=O)Nc1ncc([N+](=O)[O-])s1` [Compound 18, diethyl 2-(5-nitrothiazol-2-yl-carbamoyl)phenyl phosphate] the “conversion … in vivo” value [1] was “relatively complete” and the “Area Under concentration-time Curve (AUC) compared to nitazoxanide” value [1] was “obviously higher”.
In the case of `CC(=O)Oc1ccccc1C(=O)Nc1ncc([N+](=O)[O-])s1` [nitazoxanide, 2-acetoxy-N-(5-nitro-2-thiazolyl)benzamide], the “minimal inhibitory concentration (MIC), median value” [4] is listed as 16 µg/mL (≈ 52.1 µM), the EC50 (PR8 influenza virus) is listed as 1 µg/mL (≈ 3.25 µM) and the EC90 (PR8 influenza virus) is listed as 7 µg/mL (≈ 22.8 µM). For the same compound, the “detection of nitazoxanide in plasma, urine, bile and feces” value ([5]; po) was “not detectable”, the “fraction of the oral dose excreted by feces” value [5] was “about ⅔” and the “fraction of the oral dose excreted by urine” value [5] was “about ⅓”. For the same compound, the “50% minimal inhibitory concentration (MIC50)” value (Helicobacter pylori) was 1 µg/mL, the “90% minimal inhibitory concentration (MIC90)” value (Helicobacter pylori) was 4 µg/mL and the Vz/F ([2]; male, SD, rat, in vivo, po, 12.5 mg/kg) was 32.67 ± 16.81 L/kg.
In the case of `O=C(Nc1ncc([N+](=O)[O-])s1)c1ccccc1O` [tizoxanide], the “50% minimal inhibitory concentration (MIC50)” value (Helicobacter pylori) is listed as 1 µg/mL and the “90% minimal inhibitory concentration (MIC90)” value (Helicobacter pylori) is listed as 4 µg/mL.
